Tested on: 1A9 human ovarian cancer cells
Test: Soft agar growth of 1A9 cells
Format: cell-based
Protocol: Cell lines. The 1A9 cell line is a clone of the human ovarian carcinoma cell line, A2780. 1A9 cells were kindly provided by Giannakakou, NCI Bethesda, Md., USA. Cells were maintained in RPMI medium supplemented with 10% heat-inactivated FBS, 20 mM HEPES, pH 7.4 penicillin (100 UI/ml), streptomycin (100 μg/ml) and 4 mM glutamine (ICN, Irvine, UK) in a humified atmosphere of 95% air and 5% CO2 at 37° C.
Soft agar growth. Cells (10^4 cells/well) were seeded in 0.5 ml of 0.3% Difco Noble agar (Difco, Detroit, Mich.) supplemented with complete culture medium. This suspension was layered over 0.5 ml of 0.8% agar-medium base layer in 24 multiwell cluster dishes (Becton Dickinson) and treated with various concentrations of HYB 165 or HYB508 every 48 hours for three times. After 12 days the cells were stained with nitroblue tetrazolium (Sigma, St. Louis, Mo.) and colonies larger than 0.05 mm were counted.

HYB 165: Hybrid 18-mer mixed backbone antisense to PKA RIα, GCGUGCCTCCTCACUGGC (SEQ ID NO:4), 2-O-methyl ribonucleotides at 5′ and 3′ ends (sugars by position and backbone not given here; 2'-O-methyl ribonucleotides at both ends, mixed backbone)
inhibition of cell growth (0.1 μM): approximately 5%
inhibition of cell growth (0.5 μM): about 41%
inhibition of cell growth (1 μM): about 90%
inhibition of cell growth (2.5 μM): over 95%
